Assay results as given in paper PMC5349141, “Polyamines directly promote antizyme-mediated degradation of ornithine decarboxylase by the proteasome” (Microbial Cell, 2015).
Changes are numbered by the printed parent chain.

What was measured:
[1] = target: T1, 6His-Oaz1 (antizyme, OAZ) (Saccharomyces cerevisiae, UniProt Q02803); test: [3H]-spermidine retention by 6His-tagged protein; type: binding; settings: labelled compound
T1 construct: full-length, in-frame OAZ1 (no ribosomal frameshift needed), 6His tag, from E. coli Rosetta (plasmid pDG240)
T1 sequence (Q02803 1-292): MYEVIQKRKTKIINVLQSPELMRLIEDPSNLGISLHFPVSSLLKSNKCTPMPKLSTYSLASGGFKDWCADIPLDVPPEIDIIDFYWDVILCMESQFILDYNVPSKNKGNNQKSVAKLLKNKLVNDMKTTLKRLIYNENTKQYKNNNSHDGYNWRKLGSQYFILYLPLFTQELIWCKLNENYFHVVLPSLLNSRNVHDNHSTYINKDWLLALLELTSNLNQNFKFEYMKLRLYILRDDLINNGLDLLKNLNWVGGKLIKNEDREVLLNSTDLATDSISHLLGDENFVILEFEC

[2] = target: T2, 6His-Oaz1 (antizyme, OAZ) (Saccharomyces cerevisiae, UniProt Q02803, L245A/L246A/K247A/W251A); test: [3H]-spermidine retention by 6His-tagged protein; type: binding; settings: labelled compound
T2 construct: full-length, in-frame OAZ1 (no ribosomal frameshift needed), 6His tag, from E. coli Rosetta (plasmid pDG240)
T2 sequence (Q02803 1-292 L245A/L246A/K247A/W251A): T1 sequence (Q02803 1-292) with L245A, L246A, K247A, W251A

[3] = target: T1, 6His-Oaz1 (antizyme, OAZ); test: competition with [3H]-spermidine; type: binding; settings: 10 µM [3H]-spermidine; competitive
26S proteasome = target: T3, 26S proteasome (Saccharomyces cerevisiae, UniProt P23724+P30656); test: Suc-LLVY-AMC hydrolysis; type: biochemical; settings: 1 mM ATP; 1 mM DTT; 5 mM MgCl2; pH 7.8; weak effect, site unknown
T3 construct: gene PRE2; anti-Flag beads; singly and doubly capped, some free 20S; with Proteasome subunit beta type-4; Proteasome subunit beta type-1; Proteasome subunit beta type-2; Proteasome subunit beta type-3; Proteasome subunit beta type-7; Proteasome subunit alpha type-1; Proteasome subunit alpha type-2; Proteasome subunit alpha type-3; Proteasome subunit alpha type-4; Proteasome subunit alpha type-5; Proteasome subunit alpha type-6; Proteasome subunit alpha type-7

## NCCCCNCCCN [spd, spermidine]
[1]
  [3H]-spermidine retention by 6His-tagged protein: retention of [^3H]-spermidine by 6His-Oaz1 or 6His-Oaz1-4res
[2]
  [3H]-spermidine retention by 6His-tagged protein: Oaz1-4res bound [^3H]-spermidine with a similar efficiency as its wild-type counterpart

## CC(=O)NCCCCNCCCN [N8-acetylspermidine]
[3]
  competition with [3H]-spermidine: mono-acetylated spermidine derivatives showed a clearly reduced binding to antizyme

## CC(=O)NCCCNCCCCN [N1-acetylspermidine]
[3]
  competition with [3H]-spermidine: mono-acetylspermidine derivatives: "mono-acetylated spermidine derivatives showed a clearly reduced binding to antizyme"

## NCCCNCCCCNCCCN [spm, spermine]
26S proteasome
  activity versus spermine concentration: A small reduction in proteasome activity was observed with polyamine addition
